Measured values: ChEMBL document CHEMBL1134722, “Selective, orally active MMP inhibitors with an aryl backbone” (Bioorg Med Chem Lett, 2001)

Tests used:
[1] = target: 72 kDa type IV collagenase (Homo sapiens) (UniProt P08253); test: Inhibitory concentration against Matrix metalloprotease-2
[2] = target: T1, Interstitial collagenase (Homo sapiens) (UniProt P03956); test: Inhibitory activity against human Matrix metalloprotease-1
T1 sequence (whole entry): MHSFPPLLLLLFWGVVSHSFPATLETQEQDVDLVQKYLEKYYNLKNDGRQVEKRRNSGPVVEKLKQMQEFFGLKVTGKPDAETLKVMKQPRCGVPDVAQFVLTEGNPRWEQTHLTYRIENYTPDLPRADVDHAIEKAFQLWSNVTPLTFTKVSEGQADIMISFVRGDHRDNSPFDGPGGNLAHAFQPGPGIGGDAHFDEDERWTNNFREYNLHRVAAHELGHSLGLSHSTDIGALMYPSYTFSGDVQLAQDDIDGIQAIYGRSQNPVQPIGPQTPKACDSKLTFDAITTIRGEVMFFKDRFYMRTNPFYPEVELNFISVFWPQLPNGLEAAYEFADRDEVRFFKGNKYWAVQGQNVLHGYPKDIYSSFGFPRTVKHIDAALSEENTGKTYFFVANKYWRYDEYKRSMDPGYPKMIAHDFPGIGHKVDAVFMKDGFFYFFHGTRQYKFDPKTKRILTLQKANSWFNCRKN

[3] = Half life period after intravenous administration at 20 mpk in rats; format: ADME, organism-based; conditions: rat, in vivo, 20 mg/kg
[4] = Oral bioavailability in rat; format: ADME, organism-based; conditions: in vivo, read-out: BA
[5] = Cmax after oral administration at 20 mpk in rats; format: ADME, organism-based; parameters: dose 20 mpk, route oral; conditions: rat, in vivo, 20 mg/kg

72 kDa type IV collagenase (Homo sapiens), sequence (P08253 110-660 limits assumed): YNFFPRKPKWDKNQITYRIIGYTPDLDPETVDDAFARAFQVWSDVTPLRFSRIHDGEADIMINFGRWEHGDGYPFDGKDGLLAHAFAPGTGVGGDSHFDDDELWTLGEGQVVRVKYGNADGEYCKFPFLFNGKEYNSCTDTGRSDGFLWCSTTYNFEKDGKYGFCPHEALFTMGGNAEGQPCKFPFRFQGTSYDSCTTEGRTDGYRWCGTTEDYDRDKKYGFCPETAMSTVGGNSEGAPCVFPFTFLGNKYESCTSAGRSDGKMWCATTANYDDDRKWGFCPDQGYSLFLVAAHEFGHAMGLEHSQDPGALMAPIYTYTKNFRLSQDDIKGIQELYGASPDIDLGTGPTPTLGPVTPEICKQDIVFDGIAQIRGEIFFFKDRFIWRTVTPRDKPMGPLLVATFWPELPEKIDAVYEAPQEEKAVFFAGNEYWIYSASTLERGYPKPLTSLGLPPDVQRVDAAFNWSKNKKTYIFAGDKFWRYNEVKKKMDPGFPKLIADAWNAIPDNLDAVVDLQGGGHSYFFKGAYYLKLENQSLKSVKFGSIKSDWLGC

Compound	Activity [1] [nM]	Activity [2] [µM]	half-life [3] [min]	bioavailability [4] [%]	Cmax [5] [ng/mL]
O=C(NO)c1c(OC2CCOCC2)cccc1S(=O)(=O)N1CCC(Oc2ccc(C(F)(F)F)cc2)CC1	1.1	> 10	–	–	–
CC1(C)SCCN(S(=O)(=O)c2ccc(Oc3ccncc3)cc2)[C@H]1C(=O)NO [PRINOMASTAT]	–	–	96	28	2060
COc1ccc(S(=O)(=O)N2CCC(Oc3ccccc3)CC2)c(C(=O)NO)c1OC	1.1	> 10	–	–	–
O=C(NO)c1c(S(=O)(=O)N2CCC(Oc3ccc(C(F)(F)F)cc3)CC2)ccc2c1OCO2	3	> 10	–	–	3060
O=C(NO)c1c(F)cccc1S(=O)(=O)N1CCC(Oc2ccc(C(F)(F)F)cc2)CC1	3.3	> 10	–	–	–
COc1ccc(OC2CCN(S(=O)(=O)c3ccc(OC)c(OC)c3C(=O)NO)CC2)cc1	1.8	> 10	–	–	–
COCCOc1cccc(S(=O)(=O)N2CCC(Oc3ccc(C(F)(F)F)cc3)CC2)c1C(=O)NO	1	> 10	–	–	2670
O=C(NO)c1c(Cl)cccc1S(=O)(=O)N1CCC(Oc2ccc(C(F)(F)F)cc2)CC1	1.9	> 10	–	–	1310
O=C(NO)c1c(S(=O)(=O)N2CCC(OCc3ccc4c(c3)OCO4)CC2)ccc2c1OCO2	1.1	> 10	–	–	–
COc1ccc(S(=O)(=O)N2CCC(Oc3ccc(Cl)cc3)CC2)c(C(=O)NO)c1OC	0.3	> 10	–	–	–
CNC(=O)[C@@H](NC(=O)C(CC(C)C)C(O)C(=O)NO)C(C)(C)C (single isomer, unassigned)	–	–	54	9	2400
O=C(NO)c1c(S(=O)(=O)N2CCC(Oc3ccc(C(F)(F)F)cc3)CC2)ccc2c1OCCO2	1.4	> 10	–	–	3200
COc1ccc(OC)c(S(=O)(=O)N2CCC(Oc3ccc(C(F)(F)F)cc3)CC2)c1C(=O)NO	21	> 10	–	–	–
O=C(NO)c1ccccc1S(=O)(=O)N1CCC(Oc2ccc(OC(F)(F)F)cc2)CC1	2.2	> 10	–	39	670
COc1ccc(S(=O)(=O)N2CCC(Oc3ccc(C(F)(F)F)cc3)CC2)c(C(=O)NO)c1OC	2.4	> 10	114	32	22500
O=C(NO)c1ccccc1S(=O)(=O)N1CCC(Oc2ccc(C(F)(F)F)cc2)CC1	–	> 10	48	23	1230
COc1ccc(S(=O)(=O)N2CCC(Oc3ccc(OC(F)(F)F)cc3)CC2)c(C(=O)NO)c1OC	0.8	> 10	90	31	5160
COc1ccc(S(=O)(=O)N2CCC(OCc3ccc4c(c3)OCO4)CC2)c(C(=O)NO)c1OC	1	> 10	–	–	9200
COc1ccccc1OC1CCN(S(=O)(=O)c2ccc(OC)c(OC)c2C(=O)NO)CC1	330	> 10	–	–	–
O=C(NO)C1(CS(=O)(=O)c2ccc(Oc3ccc(Cl)cc3)cc2)CCOCC1 [CTS-1027]	0.4	0.8	90	22	1370
COc1cccc(OC2CCN(S(=O)(=O)c3ccc(OC)c(OC)c3C(=O)NO)CC2)c1	12	> 10	–	–	–
